From PubChem BioAssay (NCI)
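Assay format: 96-well plates, 48-hour exposure. GI50 = concentration required for 50% inhibition of growth. TGI is the concentration that stops growth completely.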

How the values were obtained:
Test in all cases: NCI tumour cell line growth inhibition, 48 h
[1] = test system: NCI-H226 lung
[2] = test system: NCI-H23 lung
[3] = test system: NCI-H460 lung
[4] = test system: NCI-H522 lung
[5] = test system: NCI/ADR-RES ovarian
[6] = test system: OVCAR-3 ovarian
[7] = test system: OVCAR-4 ovarian
[8] = test system: OVCAR-5 ovarian
[9] = test system: OVCAR-8 ovarian
[10] = test system: PC-3 prostate
[11] = test system: RPMI-8226 leukemia
[12] = test system: RXF 393 renal
[13] = test system: SF-268 CNS
[14] = test system: SF-295 CNS
[15] = test system: SF-539 CNS
[16] = test system: SK-MEL-2 melanoma
[17] = test system: SK-MEL-28 melanoma
[18] = test system: SK-MEL-5 melanoma
[19] = test system: SK-OV-3 ovarian
[20] = test system: SN12C renal
[21] = test system: SNB-19 CNS
[22] = test system: SR leukemia
[23] = test system: SW-620 colon
[24] = test system: T-47D breast
[25] = test system: TK-10 renal
[26] = test system: U251 CNS
[27] = test system: UACC-257 melanoma
[28] = test system: UACC-62 melanoma
[29] = test system: UO-31 renal

Cc1ccc2nc3c(nc2c1)c1cc(I)ccc1n3CCN(C)C
TGI [1]: 23.4 µM | GI50 [2]: 6.07 µM | TGI [2]: 19.6 µM | GI50 [3]: 3.51 µM | TGI [3]: 14 µM | GI50 [4]: 4.64 µM | TGI [4]: 18.5 µM | GI50 [5]: 4.67 µM | TGI [5]: 18.4 µM | GI50 [6]: 5.63 µM | TGI [6]: 18.7 µM | GI50 [7]: 6.19 µM | TGI [7]: 20.7 µM | GI50 [8]: 5.36 µM | TGI [8]: 18.5 µM | GI50 [9]: 3.72 µM | TGI [9]: 15.2 µM | GI50 [10]: 3.84 µM | TGI [10]: 17.5 µM | GI50 [11]: 7.59 µM | TGI [11]: 25.4 µM | GI50 [12]: 4.24 µM | TGI [12]: 15.7 µM | GI50 [13]: 5.36 µM | TGI [13]: 19.2 µM | GI50 [14]: 4.09 µM | TGI [14]: 16.2 µM | GI50 [15]: 4.87 µM | TGI [15]: 17.2 µM | GI50 [16]: 13.2 µM | TGI [16]: 26.4 µM | GI50 [17]: 13.8 µM | TGI [17]: 26.7 µM | GI50 [18]: 12.1 µM | TGI [18]: 25.2 µM | GI50 [19]: 13.3 µM | TGI [19]: 30.5 µM | GI50 [20]: 3.92 µM | TGI [20]: 15.5 µM | GI50 [21]: 9.48 µM | TGI [21]: 21.4 µM | GI50 [22]: 3.18 µM | TGI [22]: 14.8 µM | GI50 [23]: 3.61 µM | TGI [23]: 15.9 µM | GI50 [24]: 7.9 µM | TGI [24]: 24.9 µM | GI50 [25]: 13.8 µM | TGI [25]: 27.8 µM | GI50 [26]: 4.66 µM | TGI [26]: 16 µM | GI50 [27]: 13.4 µM | TGI [27]: 27 µM | GI50 [28]: 11.7 µM | TGI [28]: 24 µM | GI50 [29]: 1.92 µM | TGI [29]: 15.8 µM
